# Test results taken from article PMC12682859, “Interconnected roles of mitochondrial carrier proteins ANT, PiT, and UCPs in proton transport” (Frontiers in Molecular Biosciences, 2025).
# Columns and labels:
# [1] = target: T1, UCP2 (Homo sapiens, UniProt P55851); experiment: biochemical; parameters: SPQ fluorescence quenching assay of proton transport by carriers reconstituted in EYPC liposomes, palmitic acid activated; settings: EYPC liposomes + 2.5% cardiolipin, 100 uM palmitic acid
# T1 construct: full length, N-terminal His6 tag kept, pelB leader removed; E. coli membranes; homotetramer in liposomes
# T1 sequence (P55851 1-309): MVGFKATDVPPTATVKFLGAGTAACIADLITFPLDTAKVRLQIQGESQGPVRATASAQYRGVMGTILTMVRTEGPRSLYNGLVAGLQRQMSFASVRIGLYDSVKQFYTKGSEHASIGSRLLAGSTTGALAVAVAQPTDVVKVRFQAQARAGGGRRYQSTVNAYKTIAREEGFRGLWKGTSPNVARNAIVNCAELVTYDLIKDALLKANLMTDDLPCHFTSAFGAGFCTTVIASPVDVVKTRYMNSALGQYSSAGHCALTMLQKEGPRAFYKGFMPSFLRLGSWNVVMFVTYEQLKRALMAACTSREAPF
# Method: (§1) FIGURE 8 Proton transport and CATR-inhibited proton transport rates of reconstituted UCP2, UCP4, ANT1, co-reconstituted UCP4:ANT1 and UCP2:ANT1 (1:1 stoichiometric ratio) in liposomes made from EYPC containing 2.5% added CL, in the presence of 100 μM palmitic acid (PA). Each experiment included final concentrations of 1 μM total combined protein and 1 mM lipid. Dark bars represent the total proton transport rate in the absence of CATR, shaded Gray bars represent the proton transport rate in the presence of 5 μM CATR (for corresponding numerical values, see Supplementary Table S6). Each bar represents the average transport rate of at least 10 repeats (from at least two independent experiments), and the error bars show the standard deviations. Asterisks (*) indicate a statistically significant difference (p < 0.05) between the total proton efflux and CATR-inhibited efflux within each combination. Note that the proton transport data for UCP4, UCP2, and ANT1 are reproduced from Figure 5. For the 1:1 combination of UCP4 and ANT1 heterotetramers, to further confirm the cooperativity between ANT1 and UCP4 dimers, we examined proton transport in the presence of the known ANT inhibitor CATR. CATR is an irreversible substrate inhibitor of ANT that blocks its ADP-ATP exchange function ([Klingenberg et al., 1975]). We surmised that irreversible inhibition of the nucleotide exchange activity of ANT and prevention of its alternating transport function could also affect the cooperativity of proton transport activity of ANT1-UCP4 heterotetramers. To verify this hypothesis, we first examined the inhibitory effect of CATR on the proton transport activity of individually reconstituted UCP4 and ANT1. […] A similar inhibitory effect of CATR on the proton transport function of ANT has been reported in a previous study ([Kreiter et al., 2021]). […] Supplementary Material . Figure S1. Schematic of proton transport assay and data analysis. […]
# [2] = target: T2, UCP2:ANT1 heterotetramer (1:1) (Homo sapiens; Bos taurus, UniProt P02722+P55851); experiment: biochemical; parameters: SPQ fluorescence quenching assay of proton transport by carriers reconstituted in EYPC liposomes, palmitic acid activated; settings: EYPC liposomes + 2.5% cardiolipin, 100 uM palmitic acid
# T2 construct: co-reconstituted 1:1 in liposomes from purified N-terminally His6-tagged monomers (bovine ANT1, human UCP2); heterotetramer
# T2 sequence (P55851 1-309): T1 sequence (P55851 1-309)
# T2 sequence (P02722 2-298): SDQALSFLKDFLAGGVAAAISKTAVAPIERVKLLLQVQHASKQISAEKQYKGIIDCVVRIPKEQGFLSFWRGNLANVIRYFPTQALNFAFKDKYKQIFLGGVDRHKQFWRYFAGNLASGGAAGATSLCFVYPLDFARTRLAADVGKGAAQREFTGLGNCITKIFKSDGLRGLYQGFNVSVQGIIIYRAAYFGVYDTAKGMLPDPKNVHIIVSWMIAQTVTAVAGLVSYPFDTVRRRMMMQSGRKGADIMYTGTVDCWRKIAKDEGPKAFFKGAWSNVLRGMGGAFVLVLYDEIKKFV
# Method: as §1
# [3] = target: T3, UCP4 (Homo sapiens, UniProt O95847); experiment: biochemical; parameters: SPQ fluorescence quenching assay of proton transport by carriers reconstituted in EYPC liposomes, palmitic acid activated; settings: EYPC liposomes + 2.5% cardiolipin, 100 uM palmitic acid
# T3 construct: gene SLC25A27; full length, N-terminal His6 tag kept, pelB leader removed; E. coli membranes; homotetramer in liposomes
# T3 sequence (O95847 1-323): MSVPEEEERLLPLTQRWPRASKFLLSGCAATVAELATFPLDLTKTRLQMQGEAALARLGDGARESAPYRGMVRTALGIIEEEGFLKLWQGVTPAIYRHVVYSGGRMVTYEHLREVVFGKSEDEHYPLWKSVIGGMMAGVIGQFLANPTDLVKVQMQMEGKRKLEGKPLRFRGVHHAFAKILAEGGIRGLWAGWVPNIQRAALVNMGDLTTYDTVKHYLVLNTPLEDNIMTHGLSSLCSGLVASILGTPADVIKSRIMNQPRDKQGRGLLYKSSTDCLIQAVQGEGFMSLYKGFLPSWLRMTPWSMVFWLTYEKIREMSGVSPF
# Method: as §1
# [4] = target: T4, ANT1 (Bos taurus, UniProt P02722); experiment: biochemical; parameters: gene SLC25A4; full length, N-terminal His6 tag kept, pelB leader removed; E. coli membranes; mainly monomer in liposomes; SPQ fluorescence quenching assay of proton transport by carriers reconstituted in EYPC liposomes, palmitic acid activated; settings: EYPC liposomes + 2.5% cardiolipin, 100 uM palmitic acid
# T4 sequence (P02722 2-298): T2 sequence (P02722 2-298)
# Method: FIGURE 8 Proton transport and CATR-inhibited proton transport rates of reconstituted UCP2, UCP4, ANT1, co-reconstituted UCP4:ANT1 and UCP2:ANT1 (1:1 stoichiometric ratio) in liposomes made from EYPC containing 2.5% added CL, in the presence of 100 μM palmitic acid (PA). Each experiment included final concentrations of 1 μM total combined protein and 1 mM lipid. Dark bars represent the total proton transport rate in the absence of CATR, shaded Gray bars represent the proton transport rate in the presence of 5 μM CATR (for corresponding numerical values, see Supplementary Table S6). Each bar represents the average transport rate of at least 10 repeats (from at least two independent experiments), and the error bars show the standard deviations. Asterisks (*) indicate a statistically significant difference (p < 0.05) between the total proton efflux and CATR-inhibited efflux within each combination. Note that the proton transport data for UCP4, UCP2, and ANT1 are reproduced from Figure 5. For the 1:1 combination of UCP4 and ANT1 heterotetramers, to further confirm the cooperativity between ANT1 and UCP4 dimers, we examined proton transport in the presence of the known ANT inhibitor CATR. CATR is an irreversible substrate inhibitor of ANT that blocks its ADP-ATP exchange function ([Klingenberg et al., 1975]). […]
# [5] = target: T5, UCP4:ANT1 heterotetramer (1:1) (Homo sapiens; Bos taurus, UniProt O95847+P02722); experiment: SPQ fluorescence proton efflux in proteoliposomes; assay type: biochemical; settings: read-out: % inhibition at 5 uM
# T5 construct: gene SLC25A27; co-reconstituted 1:1 in liposomes from purified N-terminally His6-tagged monomers (bovine ANT1, human UCP4); heterotetramer
# T5 sequence (O95847 1-323): T3 sequence (O95847 1-323)
# T5 sequence (P02722 2-298): T2 sequence (P02722 2-298)
smiles,measurement,setting,value
"C=C1[C@@H]2CC[C@H]3[C@]4(C)C[C@H](O[C@@H]5O[C@H](CO)[C@@H](OS(=O)(=O)O)[C@H](OS(=O)(=O)O)[C@H]5OC(=O)CC(C)C)CC(C(=O)O)(C(=O)O)[C@H]4CC[C@]3(C2)[C@H]1O [CATR, carboxyatractyloside]",inhibition at 5 µM,[1],1.7%
same,inhibition at 5 µM,[2],73.6%
same,inhibition at 5 µM,[3],2.7%
same,inhibition at 5 µM,[4],70.1%
same,inhibition at 5 µM,[5],~71%
